Measurements published in patent publication US11844803B2, “Renal dysfunction improving drug comprising optical isomer of 1,4-benzothiazepine-1-oxide derivative” (AETAS PHARMA CO., LTD., priority 2017, dated 2023).
Where two headings read alike, the source gives them in different places.

Columns and labels:
[1] = Stability and solubility properties of the substance; type: physicochemical
[2] = tested on: dog with complete atrioventricular block; conditions: 1.2 mg/kg body weight; Non-Patent Document 3; cited from earlier work
[3] = tested on: ischemia/reperfusion injury in kidneys; test: Rat kidney ischemia/reperfusion injury model (renal arteries clamped 45 minutes, then reperfusion); type: in vivo, SD rats; conditions: 48 hours after administration; hydrochloride, 6 mg/kg in total; n=6; placebo 6.07±0.36; before administration 0.27±0.01
Procedure: Method: Eleven 8-week-old male SD rats were used and laparotomized under anesthesia, the renal artery of the left kidney, and then after 1 minute, that of the right kidney were clamped using a non-traumatic clip for 45 minutes, and then reperfusion was performed.
The hydrochloride of the first optical isomer component (compound (A)) of the formula [IV] of the present invention was dissolved in physiological saline, and 4 mg/kg (before ischemia) and 2 mg/kg (before and after reperfusion) of the compound (A) (6 mg/kg in total) were administered for 10 minutes before ischemia and before and after reperfusion, respectively. On the other hand, the placebo group was subjected to the same procedure as in the compound (A)—administration group in every way except that only physiological saline was administered instead of physiological saline solution of the hydrochloride of the compound (A). […]
For calculation of a creatinine clearance value, the total urine of during 60 minutes before administration and during 0 to 8, 8 to 24, and 24 to 48 hours after administration were collected in each rat, and the urine volume and the value of creatinine in urine were measured. Further, a blood sample was obtained before administration and after 4, 8, 24, and 48 hours of administration and serum creatinine values were measured over time. […]

[4] = tested on: dog with complete atrioventricular block; test: Torsades de Pointes in dog with complete atrioventricular block; type: in vivo; conditions: dose not given
human renal function = test: Action on human renal function: 8-hour urine volume after i.v. administration, double-blinded; type: in vivo, adult human (male); conditions: for total urine volume from 0 to 8 hours after administration: hydrochloride, 6 persons, placebo 459.8 (±184.1)
Procedure: After an adult was caused to completely urinate before administration of the compound (A), the compound (A) was administered to the adult. The study was performed in a double-blinded manner.
(§1) Method: Three groups including a group with 0 mg/kg of the compound (A) being administered (placebo group: 8 persons), a group with 0.05 mg/kg of the compound (A) being administered (6 persons), and a group with 0.15 mg/kg of the compound (A) being administered (6 persons) were made. The hydrochloride of the compound (A) was dissolved in physiological saline and intravenously administered at a rate of 2.5 mL/min for 20 minutes. The urine volume from a time immediately after administration to a time after 8 hours of administration and the maximum plasma concentration immediately after administration were measured.

[5] = Maximum plasma concentration immediately after i.v. administration in adult human; type: in vivo, adult human (male); conditions: 0.15 mg/kg i.v. for 20 minutes, hydrochloride, 6 persons
Procedure: as §1

dog renal function = test: Action on dog renal function, anesthetized beagle, ureter cannulation, cumulative i.v. doses; type: in vivo
Procedure: Method: 5 mg/kg of ketamine hydrochloride (KETALAR FOR INTRAMUSCULAR INJECTION 500 mg, 50 mg/mL, DAIICHI SANKYO COMPANY, LIMITED) was intramuscularly administered to a 10 to 12 kg beagle dog (n=4) as a preanesthetic administration, and then anesthesia was performed by inhale of isoflurane. After intratracheal intubation, isoflurane was inhaled in a range of 1 to 5%, artificial ventilation was carried out, and a tracheal tube was intubated and mounted on a ventilator. The examinations were performed under the ventilation conditions of 10 to 25 mL/kg/stroke and 10 to 20 stroke/min. The lower abdomen was incised, the dog was cannulated in the ureters at the both sides, and urine was continually collected. After the urination became constant, the compound (A) as the first optical isomer component which had been obtained in Example 2 was dissolved in physiological saline, and cumulative doses of 0.1 mg/kg, 0.3 mg/kg, 1 mg/kg, and 3 mg/kg of Compound (A) were administered through the leg veins for 20 minutes each.
A blood sample was obtained before the start of administration of the compound [IV] and every 20 minutes after completion of administration beginning at a time immediately after completion of administration (0 minutes), and changes in urine volume from the ureters at the both sides, Na in urine, K in urine, and a serum creatinine value were examined every 20 minutes.

For `COc1ccc2c(c1)CN(C(=O)CCN1CCC(Cc3ccccc3)CC1)CC[S+]2[O-]` (stereo not drawn) [oxalate of the compound [Ia]] [4-[3-(4-benzylpiperidin-1-yl)propionyl]-7-methoxy-2,3,4,5-tetrahydro-1,4-benzothiazepine-1-oxide], the solubility [1] was “soluble in water, ethanol, and dimethyl sulfoxide”.

In the case of `COc1ccc2c(c1)CN(C(=O)CCN1CCC(Cc3ccccc3)CC1)CCS2` [JTV519, 4-[3-(4-benzylpiperidin-1-yl)propionyl]-7-methoxy-2,3,4,5-tetrahydro-1,4-benzothiazepine], the “occurrence of Torsades de Pointes” value [2] is given as “Torsades de Pointes that is life-threatening arrhythmia occurs”.

In the case of `COc1ccc2c(c1)CN(C(=O)CCN1CCC(Cc3ccccc3)CC1)CC[S+]2[O-]` (stereo not drawn) [compound having the above formula [Ia]] [4-[3-(4-benzylpiperidin-1-yl)propionyl]-7-methoxy-2,3,4,5-tetrahydro-1,4-benzothiazepine-1-oxide], the solubility [1] is reported as “easily dissolved in ethanol and dimethyl sulfoxide (DMSO)”, the stability ([1]; room temperature) is reported as “stable to oxygen, humidity, acid, and alkali” and the skin irritating property (Skin irritating property) is reported as “has a skin irritating property”.

For `COc1ccc2c(c1)CN(C(=O)CCN1CCC(Cc3ccccc3)CC1)CC[S+]2[O-]` (single isomer, unassigned) [compound (A), 4-[3-(4-benzylpiperidin-1-yl)propionyl]-7-methoxy-2,3,4,5-tetrahydro-1,4-benzothiazepine-1-oxide], the serum creatinine value [3] was 3.02 ± 0.82 mg/dL, the “occurrence of Torsades de Pointes” value [4] was “does not cause Torsades de Pointes” and the “total urine volume from 0 to 8 hours after administration” value (human renal function; 0.05 mg/kg i.v. for 20 minutes) was 545.2 (±362.1) mL. The “increase in urine volume as compared to the placebo group (significance)” value (human renal function; 0.05 mg/kg i.v., 0 to 8 hours) was “significant (p<0.05) increase in urine volume was not recognized”, the “total urine volume from 0 to 8 hours after administration” value (human renal function; 0.15 mg/kg i.v. for 20 minutes) was 914.2 (±431.0) mL and the “increase in urine volume as compared to the placebo group (significance)” value (human renal function; 0.15 mg/kg i.v., 0 to 8 hours) was “significant (p<0.05) increase”. For the same compound, the “urine volume relative to that of the placebo group” value (human renal function; 0.15 mg/kg i.v., 0 to 8 hours) was “approximately two times”, the “blood concentration immediately after administration” value [5] was 349.3 ± 93.7 ng/mL and the “excretion amount of sodium (amount of urinary sodium) vs control” value (dog renal function; after 1 mg/kg and 3 mg/kg i.v. (cumulative doses), n=4, FIG. 5) was “significant increase”. The “excretion amount of potassium (amount of urinary potassium) vs control” value (dog renal function; after 1 mg/kg and 3 mg/kg i.v. (cumulative doses), n=4, FIG. 6) was “significant increase”, the “serum creatinine value vs control” value (dog renal function; after 1 mg/kg and 3 mg/kg i.v. (cumulative doses), n=4, FIG. 7) was “significant decrease” and the “urine volume vs control” value (dog renal function; after 1 mg/kg and 3 mg/kg i.v. (cumulative doses, 20 minutes each), n=4, paired t, FIG. 4) was “significant increase”. The solubility [1] was “water-soluble”.
